Results published in ChEMBL document CHEMBL4507258 (2021).

Legend:
[1] = biological target: Phosphatidylinositol 4-phosphate 3-kinase C2 domain-containing subunit beta (Homo sapiens) (UniProt O00750); details: Compound concentration 1000.0 nM
[2] = biological target: cGMP-dependent protein kinase 2 (Homo sapiens) (UniProt Q13237); details: Compound concentration 1000.0 nM
[3] = biological target: Serine/threonine-protein kinase 32A (Homo sapiens) (UniProt Q8WU08); details: Compound concentration 1000.0 nM
[4] = biological target: Serine/threonine-protein kinase pim-2 (Homo sapiens) (UniProt Q9P1W9); details: Compound concentration 1000.0 nM
[5] = biological target: Leucine-rich repeat serine/threonine-protein kinase 2 (Homo sapiens) (UniProt Q5S007); details: Compound concentration 1000.0 nM
[6] = biological target: Mitogen-activated protein kinase kinase kinase 14 (Homo sapiens) (UniProt Q99558); details: Compound concentration 1000.0 nM
[7] = tested on: Receptor-type tyrosine-protein kinase FLT3 (Homo sapiens), P36888 [D835V]; details: Compound concentration 1000.0 nM
[8] = biological target: Insulin receptor (Homo sapiens) (UniProt P06213); details: Compound concentration 1000.0 nM
Chain of Insulin receptor (Homo sapiens) (P06213 28-758 limits assumed): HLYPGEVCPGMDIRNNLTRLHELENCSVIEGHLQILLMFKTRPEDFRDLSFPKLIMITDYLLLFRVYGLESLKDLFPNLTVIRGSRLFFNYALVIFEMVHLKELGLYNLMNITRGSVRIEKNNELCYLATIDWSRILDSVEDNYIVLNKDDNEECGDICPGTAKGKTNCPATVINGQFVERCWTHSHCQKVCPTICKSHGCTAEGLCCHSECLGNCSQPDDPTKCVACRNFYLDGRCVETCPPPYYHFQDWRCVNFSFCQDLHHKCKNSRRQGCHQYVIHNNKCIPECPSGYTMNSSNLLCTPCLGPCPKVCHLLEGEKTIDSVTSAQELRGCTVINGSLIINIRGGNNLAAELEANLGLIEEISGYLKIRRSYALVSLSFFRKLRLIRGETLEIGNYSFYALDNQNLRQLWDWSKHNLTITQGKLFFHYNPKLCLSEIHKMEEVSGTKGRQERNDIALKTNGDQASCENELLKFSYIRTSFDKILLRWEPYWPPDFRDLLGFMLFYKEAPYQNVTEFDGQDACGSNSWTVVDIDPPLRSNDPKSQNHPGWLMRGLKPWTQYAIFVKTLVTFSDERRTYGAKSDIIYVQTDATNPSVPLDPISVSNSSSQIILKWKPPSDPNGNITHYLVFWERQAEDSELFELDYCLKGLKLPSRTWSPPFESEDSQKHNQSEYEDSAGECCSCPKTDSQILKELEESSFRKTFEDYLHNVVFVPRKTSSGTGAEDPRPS
Chain of Insulin receptor (Homo sapiens) (P06213 763-1382 limits assumed): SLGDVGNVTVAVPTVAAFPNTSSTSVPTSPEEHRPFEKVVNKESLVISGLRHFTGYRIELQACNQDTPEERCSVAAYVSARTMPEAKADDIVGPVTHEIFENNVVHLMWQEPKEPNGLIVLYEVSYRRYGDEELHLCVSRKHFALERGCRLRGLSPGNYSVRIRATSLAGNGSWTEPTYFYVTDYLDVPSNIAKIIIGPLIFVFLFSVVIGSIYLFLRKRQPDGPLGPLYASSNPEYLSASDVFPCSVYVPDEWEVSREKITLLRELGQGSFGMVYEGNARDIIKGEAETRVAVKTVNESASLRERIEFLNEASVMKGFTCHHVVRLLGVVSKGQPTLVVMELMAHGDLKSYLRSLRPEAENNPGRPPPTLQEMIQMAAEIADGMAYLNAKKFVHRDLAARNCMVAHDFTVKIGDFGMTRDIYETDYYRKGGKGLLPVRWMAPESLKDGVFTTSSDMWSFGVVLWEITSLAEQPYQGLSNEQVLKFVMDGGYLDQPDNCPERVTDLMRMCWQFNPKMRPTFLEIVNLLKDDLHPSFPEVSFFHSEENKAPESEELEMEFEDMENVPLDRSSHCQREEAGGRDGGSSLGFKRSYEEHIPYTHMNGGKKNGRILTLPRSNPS

[9] = tested on: Phosphatidylinositol 4,5-bisphosphate 3-kinase catalytic subunit alpha isoform (Homo sapiens), P42336 [I800L]; details: Compound concentration 1000.0 nM
[10] = biological target: cAMP-dependent protein kinase catalytic subunit PRKX (Homo sapiens) (UniProt P51817); details: Compound concentration 1000.0 nM
[11] = biological target: Platelet-derived growth factor receptor beta (Homo sapiens) (UniProt P09619); details: Compound concentration 1000.0 nM
[12] = biological target: Death-associated protein kinase 2 (Homo sapiens) (UniProt Q9UIK4); details: Compound concentration 1000.0 nM
[13] = biological target: Calcium/calmodulin-dependent protein kinase type 1B (Homo sapiens, UniProt Q6P2M8); details: Compound concentration 1000.0 nM
[14] = biological target: Cyclin-dependent kinase 7 (Homo sapiens) (UniProt P50613); details: Compound concentration 1000.0 nM
Chain of Cyclin-dependent kinase 7 (Homo sapiens) (P50613 whole entry, canonical isoform): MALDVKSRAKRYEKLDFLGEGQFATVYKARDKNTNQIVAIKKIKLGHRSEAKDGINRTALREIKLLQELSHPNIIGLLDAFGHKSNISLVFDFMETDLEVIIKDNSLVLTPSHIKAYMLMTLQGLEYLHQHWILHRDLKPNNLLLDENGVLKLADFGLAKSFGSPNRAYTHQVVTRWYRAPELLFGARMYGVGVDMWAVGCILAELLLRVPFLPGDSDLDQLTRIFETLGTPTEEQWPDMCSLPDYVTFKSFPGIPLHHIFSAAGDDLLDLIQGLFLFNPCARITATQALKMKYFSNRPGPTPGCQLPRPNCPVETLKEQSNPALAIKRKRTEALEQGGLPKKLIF

[15] = biological target: Casein kinase I isoform gamma-2 (Homo sapiens) (UniProt P78368); details: Compound concentration 1000.0 nM
[16] = biological target: Serine/threonine-protein kinase ULK2 (Homo sapiens) (UniProt Q8IYT8); details: Compound concentration 1000.0 nM
[17] = tested on: Receptor-type tyrosine-protein kinase FLT3 (Homo sapiens), P36888 [D835H]; details: Compound concentration 1000.0 nM
[18] = biological target: MAP kinase-interacting serine/threonine-protein kinase 2 (Homo sapiens) (UniProt Q9HBH9); details: Compound concentration 1000.0 nM
[19] = biological target: Receptor tyrosine-protein kinase erbB-2 (Homo sapiens) (UniProt P04626); details: Compound concentration 1000.0 nM
[20] = biological target: Histamine H2 receptor (Homo sapiens) (UniProt P25021); details: Compound concentration 10.0 uM
[21] = biological target: Serine/threonine-protein kinase 17A (Homo sapiens) (UniProt Q9UEE5); details: Compound concentration 1000.0 nM
[22] = biological target: Ribosomal protein S6 kinase alpha-6 (Homo sapiens) (UniProt Q9UK32); details: Compound concentration 1000.0 nM
Chain of Ribosomal protein S6 kinase alpha-6 (Homo sapiens) (Q9UK32 whole entry): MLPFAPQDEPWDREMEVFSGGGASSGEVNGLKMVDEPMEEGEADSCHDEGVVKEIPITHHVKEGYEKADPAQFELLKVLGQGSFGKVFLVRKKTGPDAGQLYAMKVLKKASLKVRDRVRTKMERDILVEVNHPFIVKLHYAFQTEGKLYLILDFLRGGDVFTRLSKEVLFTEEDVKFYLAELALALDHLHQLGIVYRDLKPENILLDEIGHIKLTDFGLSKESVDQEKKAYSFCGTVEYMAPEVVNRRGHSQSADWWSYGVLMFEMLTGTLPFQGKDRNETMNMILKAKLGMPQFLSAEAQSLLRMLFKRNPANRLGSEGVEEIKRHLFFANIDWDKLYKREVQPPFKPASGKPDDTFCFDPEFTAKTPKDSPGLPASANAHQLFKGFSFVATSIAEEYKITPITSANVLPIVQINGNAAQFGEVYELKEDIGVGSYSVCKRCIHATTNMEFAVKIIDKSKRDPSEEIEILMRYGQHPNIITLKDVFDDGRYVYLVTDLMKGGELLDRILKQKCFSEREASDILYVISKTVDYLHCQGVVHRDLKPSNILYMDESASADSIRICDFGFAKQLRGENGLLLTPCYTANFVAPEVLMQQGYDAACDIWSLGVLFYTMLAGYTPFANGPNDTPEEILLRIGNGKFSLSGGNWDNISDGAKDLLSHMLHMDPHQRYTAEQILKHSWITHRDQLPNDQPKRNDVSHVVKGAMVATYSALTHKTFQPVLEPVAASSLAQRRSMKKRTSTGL

[23] = biological target: Bone morphogenetic protein receptor type-1A (Homo sapiens) (UniProt P36894); details: Compound concentration 1000.0 nM
[24] = biological target: Dual specificity mitogen-activated protein kinase kinase 4 (Homo sapiens) (UniProt P45985); details: Compound concentration 1000.0 nM
Chain of Dual specificity mitogen-activated protein kinase kinase 4 (Homo sapiens) (P45985 whole entry): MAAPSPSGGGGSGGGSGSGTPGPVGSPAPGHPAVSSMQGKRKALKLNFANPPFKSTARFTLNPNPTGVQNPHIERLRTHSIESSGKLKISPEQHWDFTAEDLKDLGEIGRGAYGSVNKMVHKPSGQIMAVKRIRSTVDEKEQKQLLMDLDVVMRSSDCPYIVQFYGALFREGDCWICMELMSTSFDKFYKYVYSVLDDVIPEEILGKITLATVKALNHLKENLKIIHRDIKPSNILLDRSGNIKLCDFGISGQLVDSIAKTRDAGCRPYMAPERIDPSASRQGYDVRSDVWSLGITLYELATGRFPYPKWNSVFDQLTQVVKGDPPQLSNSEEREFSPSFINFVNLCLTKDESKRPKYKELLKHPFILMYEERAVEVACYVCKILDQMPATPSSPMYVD

[25] = biological target: Serine/threonine-protein kinase SIK2 (Homo sapiens) (UniProt Q9H0K1); details: Compound concentration 1000.0 nM
[26] = biological target: Calcium/calmodulin-dependent protein kinase type II subunit gamma (Homo sapiens) (UniProt Q13555); details: Compound concentration 1000.0 nM
[27] = biological target: Receptor-type tyrosine-protein kinase FLT3 (Homo sapiens) (UniProt P36888); details: Compound concentration 1000.0 nM
[28] = biological target: Mitogen-activated protein kinase kinase kinase 7 (Homo sapiens) (UniProt O43318); details: Compound concentration 1000.0 nM
[29] = tested on: Tyrosine-protein kinase ABL1 (Homo sapiens), P00519 [T315I]; details: Compound concentration 1000.0 nM
[30] = biological target: Uncharacterized serine/threonine-protein kinase SBK3 (Homo sapiens) (UniProt P0C264); details: Compound concentration 1000.0 nM
[31] = biological target: Protein-tyrosine kinase 6 (Homo sapiens) (UniProt Q13882); details: Compound concentration 1000.0 nM
Chain of Protein-tyrosine kinase 6 (Homo sapiens) (Q13882 whole entry, looked up): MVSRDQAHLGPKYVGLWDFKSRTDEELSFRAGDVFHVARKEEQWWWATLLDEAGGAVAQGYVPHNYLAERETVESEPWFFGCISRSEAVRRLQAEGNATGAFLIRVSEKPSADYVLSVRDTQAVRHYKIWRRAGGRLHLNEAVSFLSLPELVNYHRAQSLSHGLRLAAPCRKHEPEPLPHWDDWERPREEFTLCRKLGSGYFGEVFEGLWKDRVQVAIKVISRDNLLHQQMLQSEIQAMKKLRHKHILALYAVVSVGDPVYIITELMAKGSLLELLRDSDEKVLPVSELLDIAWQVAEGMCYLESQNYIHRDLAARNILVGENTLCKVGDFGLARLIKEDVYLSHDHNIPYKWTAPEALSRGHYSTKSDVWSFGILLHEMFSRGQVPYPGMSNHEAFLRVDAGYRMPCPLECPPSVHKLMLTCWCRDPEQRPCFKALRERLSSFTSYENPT

[32] = biological target: Mitogen-activated protein kinase kinase kinase 2 (Homo sapiens) (UniProt Q9Y2U5); details: Compound concentration 1000.0 nM
[33] = biological target: Serine/threonine-protein kinase TNNI3K (Homo sapiens) (UniProt Q59H18); details: Compound concentration 1000.0 nM
[34] = tested on: Receptor-type tyrosine-protein kinase FLT3 (Homo sapiens), P36888 [N841I]; details: Compound concentration 1000.0 nM
[35] = biological target: Ephrin type-B receptor 4 (Homo sapiens) (UniProt P54760); details: Compound concentration 1000.0 nM
[36] = biological target: TGF-beta receptor type-1 (Homo sapiens) (UniProt P36897); details: Compound concentration 1000.0 nM
[37] = tested on: Receptor-type tyrosine-protein kinase FLT3 (Homo sapiens), P36888 [UNDEFINED MUTATION]; details: Compound concentration 1000.0 nM
[38] = biological target: Calcium/calmodulin-dependent protein kinase type IV (Homo sapiens) (UniProt Q16566); details: Compound concentration 1000.0 nM
[39] = tested on: Epidermal growth factor receptor (Homo sapiens), P00533 [UNDEFINED MUTATION]; details: Compound concentration 1000.0 nM
[40] = biological target: Serine/threonine-protein kinase Nek4 (Homo sapiens) (UniProt P51957); details: Compound concentration 1000.0 nM
[41] = tested on: Epidermal growth factor receptor (Homo sapiens), P00533 [G719S]; details: Compound concentration 1000.0 nM
[42] = biological target: 5'-AMP-activated protein kinase catalytic subunit alpha-1 (Homo sapiens) (UniProt Q13131); details: Compound concentration 1000.0 nM
[43] = biological target: Mitogen-activated protein kinase kinase kinase 11 (Homo sapiens) (UniProt Q16584); details: Compound concentration 1000.0 nM
[44] = biological target: Calcium/calmodulin-dependent protein kinase type II subunit delta (Homo sapiens) (UniProt Q13557); details: Compound concentration 1000.0 nM

Chain of Phosphatidylinositol 4-phosphate 3-kinase C2 domain-containing subunit beta (Homo sapiens) (O00750 whole entry, the tested form may be a part): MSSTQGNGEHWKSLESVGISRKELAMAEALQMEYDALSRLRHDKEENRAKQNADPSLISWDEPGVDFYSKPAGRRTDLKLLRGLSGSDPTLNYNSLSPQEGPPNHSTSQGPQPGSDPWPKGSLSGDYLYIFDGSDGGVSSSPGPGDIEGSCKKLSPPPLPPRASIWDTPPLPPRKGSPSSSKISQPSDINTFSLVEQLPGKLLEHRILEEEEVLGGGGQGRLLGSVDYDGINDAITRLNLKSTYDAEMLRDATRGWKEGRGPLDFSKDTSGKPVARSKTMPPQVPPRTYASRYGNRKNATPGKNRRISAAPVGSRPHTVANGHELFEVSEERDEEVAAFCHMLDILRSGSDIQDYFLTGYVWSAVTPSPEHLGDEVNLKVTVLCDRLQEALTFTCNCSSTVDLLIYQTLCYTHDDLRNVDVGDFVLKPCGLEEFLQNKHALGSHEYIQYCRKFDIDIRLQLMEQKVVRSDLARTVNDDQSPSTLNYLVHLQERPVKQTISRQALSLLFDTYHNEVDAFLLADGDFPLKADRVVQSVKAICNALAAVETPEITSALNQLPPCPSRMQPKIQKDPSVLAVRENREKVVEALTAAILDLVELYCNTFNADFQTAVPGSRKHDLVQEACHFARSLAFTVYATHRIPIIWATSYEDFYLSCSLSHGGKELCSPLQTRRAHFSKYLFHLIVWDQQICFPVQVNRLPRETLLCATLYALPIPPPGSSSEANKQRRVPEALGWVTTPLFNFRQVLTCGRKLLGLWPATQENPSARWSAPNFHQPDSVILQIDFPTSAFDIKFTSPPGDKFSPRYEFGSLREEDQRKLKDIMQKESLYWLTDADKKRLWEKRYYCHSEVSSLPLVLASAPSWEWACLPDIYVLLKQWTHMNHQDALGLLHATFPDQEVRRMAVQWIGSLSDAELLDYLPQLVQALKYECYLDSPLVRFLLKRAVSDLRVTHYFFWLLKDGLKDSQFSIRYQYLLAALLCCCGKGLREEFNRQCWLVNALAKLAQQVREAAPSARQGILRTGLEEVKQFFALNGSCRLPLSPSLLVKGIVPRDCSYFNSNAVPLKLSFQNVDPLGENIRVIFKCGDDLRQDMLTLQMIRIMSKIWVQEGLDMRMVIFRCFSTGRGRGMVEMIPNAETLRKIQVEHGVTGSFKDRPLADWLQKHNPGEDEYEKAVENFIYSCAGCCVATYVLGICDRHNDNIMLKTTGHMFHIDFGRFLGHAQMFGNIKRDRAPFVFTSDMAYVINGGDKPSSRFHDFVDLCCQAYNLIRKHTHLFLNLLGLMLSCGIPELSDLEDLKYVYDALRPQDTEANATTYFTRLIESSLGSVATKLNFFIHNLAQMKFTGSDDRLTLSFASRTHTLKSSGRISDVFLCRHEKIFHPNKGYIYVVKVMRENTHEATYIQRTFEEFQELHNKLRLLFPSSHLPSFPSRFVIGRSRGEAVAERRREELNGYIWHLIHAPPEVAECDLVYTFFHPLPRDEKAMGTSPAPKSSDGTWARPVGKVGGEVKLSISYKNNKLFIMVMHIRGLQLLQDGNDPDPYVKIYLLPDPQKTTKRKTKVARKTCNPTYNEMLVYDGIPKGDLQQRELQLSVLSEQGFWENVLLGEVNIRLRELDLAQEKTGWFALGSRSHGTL

With `CCCCN(CCCC)C(=O)CN1C[C@@H](c2cc(OC)c3c(c2)OCO3)[C@H](C(=O)O)[C@H]1CC(C)(C)CCC` [A-545] the residual activity [1] was 73.6%, the residual activity [2] was 100% and the residual activity [3] was 100%. The residual activity [4] was 96.3%, the residual activity [5] was 65.9% and the residual activity [6] was 100%. For the same compound, the residual activity [7] was 78.8%, the residual activity [8] was 89% and the residual activity [9] was 100%. It also gave a residual activity [10] of 87.7%, a residual activity [11] of 99% and a residual activity [12] of 99.6%. It also gave a residual activity [13] of 100%, a residual activity [14] of 89.5% and a residual activity [15] of 96.3%. It also gave a residual activity [16] of 89.2%, a residual activity [17] of 100% and a residual activity [18] of 96.5%. It also gave a residual activity [19] of 92.1%, an inhibition [20] of 8.46% and a residual activity [21] of 100%. The residual activity [22] was 79.2%, the residual activity [23] was 100% and the residual activity [24] was 93.3%. The residual activity [25] was 100%, the residual activity [26] was 94.3% and the residual activity [27] was 97.4%. It also gave a residual activity [28] of 84.7%, a residual activity [29] of 89.2% and a residual activity [30] of 100%. For the same compound, the residual activity [31] was 100%, the residual activity [32] was 84.6% and the residual activity [33] was 95.9%. The residual activity [34] was 96.1%, the residual activity [35] was 98.5% and the residual activity [36] was 100%. It also gave a residual activity [37] of 100%, a residual activity [38] of 100% and a residual activity [39] of 88.4%. The residual activity [40] was 93.9%, the residual activity [41] was 100% and the residual activity [42] was 96.7%. For the same compound, the residual activity [43] was 100% and the residual activity [44] was 99.9%.
With `CCCCN(CCCC)C(=O)CN1C[C@H](c2cc(OC)c3c(c2)OCO3)[C@@H](C(=O)O)[C@@H]1CC(C)(C)CCC` [ABT-546] the residual activity [1] was 65.9%, the residual activity [2] was 100% and the residual activity [3] was 100%. It also gave a residual activity [4] of 100%, a residual activity [5] of 38% and a residual activity [6] of 100%. For the same compound, the residual activity [7] was 57.4%, the residual activity [8] was 75.8% and the residual activity [9] was 52.9%. The residual activity [10] was 100%, the residual activity [11] was 100% and the residual activity [12] was 100%. For the same compound, the residual activity [13] was 86.5%, the residual activity [14] was 100% and the residual activity [15] was 100%. The residual activity [16] was 88.8%, the residual activity [17] was 100% and the residual activity [18] was 83%. The residual activity [19] was 95.6%, the inhibition [20] was 24.3% and the residual activity [21] was 100%. It also gave a residual activity [22] of 100%, a residual activity [23] of 86.9% and a residual activity [24] of 74.4%. For the same compound, the residual activity [25] was 100%, the residual activity [26] was 100% and the residual activity [27] was 76%. For the same compound, the residual activity [28] was 85.5%, the residual activity [29] was 80.7% and the residual activity [30] was 100%. It also gave a residual activity [31] of 100%, a residual activity [32] of 81.2% and a residual activity [33] of 100%. It also gave a residual activity [34] of 100%, a residual activity [35] of 100% and a residual activity [36] of 98.6%. The residual activity [37] was 100%, the residual activity [38] was 100% and the residual activity [39] was 94.3%. The residual activity [40] was 85%, the residual activity [41] was 100% and the residual activity [42] was 100%. The residual activity [43] was 100% and the residual activity [44] was 100%.
